Experiment [1] has as its target Human LATS2 catalytic domain (Homo sapiens (Human), UniProt Q9NRM7). The experiment in a line: LATS2 High ATP HTRF Assay. It is filed as biochemical. To be noted: no asterisk: LATS2 High ATP HTRF Assay, 5000 μM ATP, 0.05 nM LATS2. An outline of the steps: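 Phosphorylation of 0.5 μM STK S1 peptide at high ATP (5000 μM), 2 h at room temperature, by 0.05 nM LATS2 kinase domain/Mob1b complex after 10 min compound pre-incubation. Ki derived from HTRF-based IC50 (4-parameter logistic) by Cheng-Prusoff, ATP Km 105 μM.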

Experiment [2] relates to TAZ nuclear translocation in SW1990 cells. The experiment in a line: TAZ Nuclear Translocation Assay. Format: cell-based. To be noted: Homo sapiens, 4 hours. An outline of the steps: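 SW1990 cells in RPMI1640/10% FBS treated with compounds for 4 h at 37 °C, then fixed and immunostained for TAZ with Hoechst nuclear counterstain and imaged by high-content imaging. Read-out is the nuclear/cytoplasmic-ring fluorescence ratio, normalized to DMSO (0%) and an inhibitor control (100%); EC50 from four-parameter fit.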

Sequence of Human LATS2 catalytic domain (Q9NRM7 553-1088): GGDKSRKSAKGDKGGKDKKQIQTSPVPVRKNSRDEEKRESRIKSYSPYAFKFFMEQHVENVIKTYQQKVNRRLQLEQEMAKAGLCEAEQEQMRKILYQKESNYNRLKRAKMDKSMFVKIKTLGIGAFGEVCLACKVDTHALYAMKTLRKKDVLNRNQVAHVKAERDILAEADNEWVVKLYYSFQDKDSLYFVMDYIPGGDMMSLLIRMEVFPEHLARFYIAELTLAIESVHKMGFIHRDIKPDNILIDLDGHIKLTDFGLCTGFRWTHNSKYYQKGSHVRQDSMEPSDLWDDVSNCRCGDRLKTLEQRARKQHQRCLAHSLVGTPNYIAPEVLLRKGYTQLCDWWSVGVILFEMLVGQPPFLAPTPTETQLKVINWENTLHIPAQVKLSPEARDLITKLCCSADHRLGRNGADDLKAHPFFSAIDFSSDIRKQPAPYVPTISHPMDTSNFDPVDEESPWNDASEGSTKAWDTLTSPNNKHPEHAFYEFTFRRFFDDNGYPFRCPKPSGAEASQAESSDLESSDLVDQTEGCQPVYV
Sequence of Human LATS2 catalytic domain (Q7L9L4 whole entry partner, the tested form may be a part): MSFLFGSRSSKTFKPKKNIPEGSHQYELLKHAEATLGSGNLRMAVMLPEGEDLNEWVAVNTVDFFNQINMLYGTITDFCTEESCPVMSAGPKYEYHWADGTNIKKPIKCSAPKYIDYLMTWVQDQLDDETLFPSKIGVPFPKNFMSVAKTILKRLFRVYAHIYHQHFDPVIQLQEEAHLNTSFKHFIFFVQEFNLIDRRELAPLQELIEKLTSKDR

With `C#CC(C)(O)CN1CCC2(CCN(c3nc(-c4ccncc4)nc4cnccc34)CC2)C1` (centres unmarked) [Compound 271, 2-methyl-1-(8-(2-(pyridin-4-yl)pyrido[3,4-d]pyrimidin-4-yl)-2,8-diazaspiro[4.5]decan-2-yl)but-3-yn-2-ol], the Ki in experiment [1] came to 0.041 nM. The same molecule displayed an EC50 in experiment [2] of 330 nM.
As to `FC(F)(F)c1cncc2nc(-c3ccncc3)nc(N3CCC4(CCNC4)CC3)c12` [Compound 246, 2-(pyridin-4-yl)-4-(2,8-diazaspiro[4.5]decan-8-yl)-5-(trifluoromethyl)pyrido[3,4-d]pyrimidine], the affinity in experiment [1] corresponds to a Ki of 3.5 nM. Moreover, the concentration giving a half-maximal response (EC50) in experiment [2] is 3100 nM.
The corresponding values for `Cc1n[nH]cc1-c1nc(N2CCC3(CCNC3)CC2)c2ccnc(C)c2n1` [Compound 163, 8-methyl-2-(3-methyl-1H-pyrazol-4-yl)-4-(2,8-diazaspiro[4.5]decan-8-yl)pyrido[3,4-d]pyrimidine] are 2.88 nM and above 10000 nM.
On the same counts, the results for `O[C@H]1CC[C@H]1N1CCC2(CCN(c3nc(-c4ccncc4)nc4cnccc34)CC2)C1` (single isomer, unassigned) [Compound 181] are 1.87 nM and 1900 nM.
As to `CN1CC2(CCN(c3nc(-c4ccncc4)nc4cnccc34)CC2)CC1CO` (racemic) [Example 212, (2-methyl-8-(2-(pyridin-4-yl)pyrido[3,4-d]pyrimidin-4-yl)-2,8-diazaspiro[4.5]decan-3-yl)methanol], in experiment [1], the Ki came out at 0.41 nM. The molecule also showed an EC50 in experiment [2] of 2500 nM.
In the case of `CC1NCCC12CCN(c1nc(-c3ccncc3)nc3cnccc13)CC2` (centres unmarked) [Compound 166, 4-(1-methyl-2,8-diazaspiro[4.5]decan-8-yl)-2-(pyridin-4-yl)pyrido[3,4-d]pyrimidine], the Ki in experiment [1] was found to be 2.67 nM. Further, the EC50 in experiment [2] turned out to be 1800 nM.
On the same counts, the results for `O[C@H]1CC[C@@H](N2CCC3(CCN(c4nc(-c5ccncc5)nc5cnccc45)CC3)C2)C1` (single isomer, unassigned) [Compound 169] are 0.45 nM and 570 nM.
As to `CN(C)c1cncc2nc(-c3ccncc3)nc(N3CCC4(CCNC4)CC3)c12` [Compound 258, N,N-Dimethyl-2-(pyridin-4-yl)-4-(2,8-diazaspiro[4.5]decan-8-yl)pyrido[3,4-d]pyrimidin-5-amine], in experiment [1], the Ki was found to be 1.8 nM. This molecule also came in with an EC50 in experiment [2] of 1900 nM.
On the same counts, the results for `CN1CCC2(CCN(c3nc(-c4ccncc4)nc4cnc(Cn5cc(Cl)cn5)cc34)CC2)C1` [Compound 189, 6-((4-chloro-1H-pyrazol-1-yl)methyl)-4-(2-methyl-2,8-diazaspiro[4.5]decan-8-yl)-2-(pyridin-4-yl)pyrido[3,4-d]pyrimidine] are 0.76 nM and 540 nM.
Molecule `c1cc(-c2nc(N3CCC4(CC3)CCN(C3CCCCC3)C4)c3ccncc3n2)ccn1` [Compound 119, 4-(2-cyclohexyl-2,8-diazaspiro[4.5]decan-8-yl)-2-(pyridin-4-yl)pyrido[3,4-d]pyrimidine] registered a Ki in experiment [1] of 0.03 nM. In addition, in experiment [2], the EC50 worked out at 430 nM.
Turning to `CS(=O)(=O)NCC1CC2(CCN(c3nc(-c4ccncc4)nc4cnccc34)CC2)CN1` (centres unmarked) [Example 224, N-((8-(2-(pyridin-4-yl)pyrido[3,4-d]pyrimidin-4-yl)-2,8-diazaspiro[4.5]decan-3-yl)methyl)methanesulfonamide], the Ki in experiment [1] was determined as 0.16 nM. This molecule returned an EC50 in experiment [2] of 8900 nM.
`CN1CCC2(CCN(c3nc(-c4ccncc4)nc4c(C#CC(C)(C)O)nccc34)CC2)C1` [Compound 247, 2-methyl-4-(4-(2-methyl-2,8-diazaspiro[4.5]decan-8-yl)-2-(pyridin-4-yl)pyrido[3,4-d]pyrimidin-8-yl)but-3-yn-2-ol]: the Ki in experiment [1] came out at 0.039 nM. This molecule also showed an EC50 in experiment [2] of 310 nM.
Take `Cc1[nH]ncc1-c1nc(N2CCC3(CC2)CCN([C@@H]2CC[C@@H]2O)C3)c2ccncc2n1` (single isomer, unassigned) [Example 230]: the Ki in experiment [1] was 0.043 nM. Moreover, the EC50 in experiment [2] turned out to be 1000 nM.
With `CN(C)S(=O)(=O)CCN1CCC2(CCN(c3nc(-c4ccncc4)nc4cnccc34)CC2)C1` [Example 215, N,N-dimethyl-2-(8-(2-(pyridin-4-yl)pyrido[3,4-d]pyrimidin-4-yl)-2,8-diazaspiro[4.5]decan-2-yl)ethanesulfonamide], the Ki in experiment [1] came to 1.2 nM. In experiment [2], this molecule displayed an EC50 of 1500 nM.
Turning to `Cc1n[nH]cc1-c1nc(N2CCC3(CC2)CCN(C2CCOC2)C3)c2ccncc2n1` (centres unmarked) [Compound 148, 2-(3-methyl-1H-pyrazol-4-yl)-4-(2-(tetrahydrofuran-3-yl)-2,8-diazaspiro[4.5]decan-8-yl)pyrido[3,4-d]pyrimidine], the Ki in experiment [1] stood at 0.12 nM. This molecule yielded an EC50 in experiment [2] of 560 nM.
As to `CS(=O)(=O)NCCN1CCC2(CCN(c3nc(-c4ccncc4)nc4cnccc34)CC2)C1` [Compound 126, N-(2-(8-(2-(pyridin-4-yl)pyrido[3,4-d]pyrimidin-4-yl)-2,8-diazaspiro[4.5]decan-2-yl)ethyl)methanesulfonamide], in experiment [1], the affinity corresponds to a Ki of 0.11 nM. For the same molecule, in experiment [2], the EC50 was determined as 960 nM.
On the same counts, the results for `CN1CCC2(CCN(c3nc(-c4ccncc4)nc4cncc(OC5COC5)c34)CC2)C1` [Compound 269, 4-(2-Methyl-2,8-diazaspiro[4.5]decan-8-yl)-5-(oxetan-3-yloxy)-2-(pyridin-4-yl)pyrido[3,4-d]pyrimidine] are 0.034 nM and 210 nM.
The corresponding values for `COC[C@@H]1CC2(CCN(c3nc(-c4ccncc4)nc4cnccc34)CC2)CN1` (single isomer, unassigned) [Example 222] are 0.1 nM and 340 nM.
The corresponding values for `FCCN1CCC2(CCN(c3nc(-c4ccncc4)nc4cnccc34)CC2)C1` [Compound 134, 4-(2-(2-fluoroethyl)-2,8-diazaspiro[4.5]decan-8-yl)-2-(pyridin-4-yl)pyrido[3,4-d]pyrimidine] are 0.72 nM and 1100 nM.
In turn, `COCC1CC2(CCN(c3nc(-c4ccncc4)nc4cnccc34)CC2)CN1C` (racemic) [Example 217, 4-(3-(methoxymethyl)-2-methyl-2,8-diazaspiro[4.5]decan-8-yl)-2-(pyridin-4-yl)pyrido[3,4-d]pyrimidine] showed a Ki in experiment [1] of 0.35 nM. In addition, the EC50 in experiment [2] turned out to be 780 nM.
In experiment [1], `COc1cncc2nc(-c3c[nH]nc3C)nc(N3CCC4(CCN(C)C4)CC3)c12` [Compound 264, 5-methoxy-2-(3-methyl-1H-pyrazol-4-yl)-4-(2-methyl-2,8-diazaspiro[4.5]decan-8-yl)pyrido[3,4-d]pyrimidine] had a Ki of 0.026 nM. For the same molecule, the EC50 in experiment [2] came to 170 nM.
The corresponding values for `Cc1n[nH]cc1-c1nc(N2CCC3(CCN(C)C3)CC2)c2cc(Cc3ccncc3)ncc2n1` [Example 236, 2-(3-methyl-1H-pyrazol-4-yl)-4-(2-methyl-2,8-diazaspiro[4.5]decan-8-yl)-6-(pyridin-4-ylmethyl)pyrido[3,4-d]pyrimidine] are 0.49 nM and 1200 nM.
Turning to `Clc1cncc2nc(-c3ccncc3)nc(N3CCC4(CCNC4)CC3)c12` [Compound 161, 5-chloro-2-(pyridin-4-yl)-4-(2,8-diazaspiro[4.5]decan-8-yl)pyrido[3,4-d]pyrimidine], the affinity in experiment [1] corresponds to a Ki of 5.55 nM. In experiment [2], the concentration for a half-maximal effect (EC50) worked out at 1900 nM.
As to `COCCOc1cncc2nc(-c3ccncc3)nc(N3CCC4(CCNC4)CC3)c12` [Compound 263, 5-(2-methoxyethoxy)-2-(pyridin-4-yl)-4-(2,8-diazaspiro[4.5]decan-8-yl)pyrido[3,4-d]pyrimidine], affinity in experiment [1] was put at a Ki of 0.11 nM. In experiment [2], this molecule came in with an EC50 of 1200 nM.
`FC(F)Oc1cncc2nc(-c3ccncc3)nc(N3CCC4(CCNC4)CC3)c12` [Compound 274, 5-(difluoromethoxy)-2-(pyridin-4-yl)-4-(2,8-diazaspiro[4.5]decan-8-yl)pyrido[3,4-d]pyrimidine]: the affinity in experiment [1], expressed as Ki, was 0.02 nM. The same molecule returned a half-maximal effective concentration (EC50) in experiment [2] of 180 nM.
In experiment [1], `CN1CCC2(CCN(c3nc(-c4ccncc4)nc4c(Cl)nccc34)CC2)C1` [Compound 266, 8-chloro-4-(2-methyl-2,8-diazaspiro[4.5]decan-8-yl)-2-(pyridin-4-yl)pyrido[3,4-d]pyrimidine] showed a Ki of 0.37 nM. In experiment [2], the EC50 stood at 1100 nM.
In experiment [1], `CC(C)Oc1cncc2nc(-c3ccncc3)nc(N3CCC4(CCNC4)CC3)c12` [Compound 248, 5-isopropoxy-2-(pyridin-4-yl)-4-(2,8-diazaspiro[4.5]decan-8-yl)pyrido[3,4-d]pyrimidine] showed a Ki of 0.02 nM. For the same molecule, the 50% effective concentration (EC50) in experiment [2] came to 110 nM.
Take `COC(=O)C1CC2(CCN(c3nc(-c4ccncc4)nc4cnccc34)CC2)CN1` (centres unmarked) [Compound 171, methyl 8-(2-(pyridin-4-yl)pyrido[3,4-d]pyrimidin-4-yl)-2,8-diazaspiro[4.5]decane-3-carboxylate]: in experiment [1], the affinity, expressed as Ki, was 1.95 nM. A half-maximal response in experiment [2] (EC50) required 8400 nM.
On the same counts, the results for `Cc1n[nH]cc1-c1nc(N2CCC3(CCN(CCCO)C3)CC2)c2ccncc2n1` [Compound 149, 3-(8-(2-(3-methyl-1H-pyrazol-4-yl)pyrido[3,4-d]pyrimidin-4-yl)-2,8-diazaspiro[4.5]decan-2-yl)propan-1-ol] are 0.045 nM and 2500 nM.
The corresponding values for `N#CCCN1CCC2(CCN(c3nc(-c4ccncc4)nc4cnccc34)CC2)C1` [Compound 136, 3-(8-(2-(pyridin-4-yl)pyrido[3,4-d]pyrimidin-4-yl)-2,8-diazaspiro[4.5]decan-2-yl)propanenitrile] are 0.45 nM and 3200 nM.
`C[C@H](CO)N1CCC2(CCN(c3nc(-c4ccncc4)nc4cnccc34)CC2)C1` (single isomer, unassigned) [Compound 103]: in experiment [1], the affinity corresponds to a Ki of 0.58 nM. The same molecule displayed an EC50 in experiment [2] of 740 nM.
